The subject of one assay is sourgrass. Briefly: Test D sourgrass. Format: in vivo, Trichachne insularis. The conditions noted are these: Preemergence, 0 to 100 scale. From the text: Seeds, tubers, or plant parts of Alexandergrass (Brachiaria plantaginea), bermuda-grass (Cynodon dactylon), common pursiane (Portulaca oleracea), common ragweed (Ambrosia elatior), common groundsel (Senecio vulgaris), dallisgrass (Paspalum dilatatum), goosegrass (Eleusine indica), guineagrass (Panicum maximum), itchgrass (Rottboellia exaltata), Johnson grass (Sorghum halepense), large crabgrass (Digitaria sanguinalis), pitted morningglory (Ipomoea lacunosa), purple nutsedge (Cyperus rotundus), sandbur (Cenchrus echinatus), sourgrass (Trichachne insularis), Spanishneedles (Bidens bipinnata), surinam grass (Brachiaria decumbens) and tall mallow (Malva sylvestris) were planted into greenhouse pots of flats containing greenhouse planting medium. Plant species were grown in separate pots or individual compartments. Preemergence applications were made within one day of planting the seed or plant part.
Test chemicals were formulated in a non-phytotoxic solvent mixture which included a surfactant and applied preemergence to the surface of the pot containing seeds in a sandy loam soil. Untreated control pots and treated pots were placed in the greenhouse for growth and visually evaluated for injury 14 to 21 days after herbicide application. Plant response ratings, summarized in Table C, are based on a 0 to 100 scale where 0 is no injury and 100 is complete control. A dash (−) response means no test result.

For another assay, the system named is ladysthumb smartweed. Description: Test C postemergence ladysthumb smartweed. Format: in vivo, Polygonum persicaria. The conditions noted are these: 0 to 100 scale, 0 no effect, 100 complete control. The procedure:
Compounds evaluated in this test were formulated in a non-phytotoxic solvent mixture which included a surfactant and applied to plants that were grown for various periods of time before treatment (postemergence application). A mixture of sandy loam soil and greenhouse potting mix in a 60:40 ratio was used for the postemergence test.
Plantings of these crops and weed species were adjusted to produce plants of appropriate size for the postemergence test. All plant species were grown using normal greenhouse practices. […]
Treated plants and untreated controls were maintained in a greenhouse for approximately 14, to 21 days, after which all treated plants were compared to untreated controls and visually evaluated. […]

The next assay relates to Green foxtail. Briefly: Test D green foxtail. Format: in vivo. The settings on record: Preemergence, 0 to 100 scale. Put shortly:
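Greenhouse pots, sandy loam, single species per pot. Preemergence tests: soil-surface application ≤1 day after planting. Compound formulated in non-phytotoxic solvent with surfactant. Visual rating 14–21 DAT, scale 0–100.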

This note sets out measurements from US6737383B1, “Herbicidal oxadiazolidines” (priority 1999, dated 2004).

For the compound `Cc1cccc(C)c1-n1c(=O)on(C(=O)N(c2ccc(F)cc2F)C(C)C)c1=O` [Compound 28], the “Plant response rating, Sourgrass” value in the assay with sourgrass (Rate 32 g/ha, 0 no injury, 100 complete control) is 60; in the assay on sourgrass (Rate 250 g/ha), 100. For the same compound, the “Sourgrass plant response rating” value is listed as 85 in the assay on sourgrass (Rate 64 g/ha, 0 no injury, 100 complete control) and 100 in the assay on sourgrass (Rate 125 g/ha, 0 no injury, 100 complete control).
On to `CCn1c(=O)on(C(=O)N(c2ccc(F)cc2)C(C)C)c1=O` [Compound 107], for which the “Plant response rating Ladysthumb” value is reported as 0 with ladysthumb smartweed (Rate 140 g/ha) and 30 in the assay with ladysthumb smartweed (Rate 560 g/ha). Also, the “Plant response rating, Green foxtail” value in the assay on Green foxtail (Rate 250 g/ha) and in the assay with Green foxtail (Rate 500 g/ha) was 100 in each case.
